Measured values reported in US10660333B2, “Substituted 2-heterocyclylimidazolylcarboxamides as pesticides” (BAYER CROPSCIENCE AKTIENGESELLSCHAFT, priority 2016, dated 2020).
Read-outs that look alike come from different tables or passages of the source.

Assays:
Myzus persicae [1] = assay: Myzus persicae - spray test; type: in vivo; conditions: for pest or weed control at 500 g/ha: Myzus persicae, foliar, 120 h, read-out: efficacy (aphids killed)
Procedure: Myzus persicae—Spray Test
To produce a suitable active ingredient formulation, 1 part by weight of active ingredient is dissolved with the specified parts by weight of solvent and made up to the desired concentration with water containing an emulsifier concentration of 1000 ppm. To produce further test concentrations, the formulation is diluted with emulsifier-containing water.
Discs of Chinese cabbage leaves (Brassica pekinensis) infested by all stages of the green peach aphid (Myzus persicae) are sprayed with an active ingredient formulation of the desired concentration.
(§1) After 5 days, the efficacy in % is determined. 100% means that all the aphids have been killed; 0% means that no aphids have been killed.

[2] = log P by HPLC on reversed-phase (C18) columns, OECD Guideline 117; type: physicochemical
Myzus persicae [3] = assay: Myzus persicae - oral test; type: in vivo; conditions: for pest or weed control at 4 ppm: Myzus persicae, 120 h, read-out: efficacy (aphids killed)
Procedure: To produce a suitable active ingredient formulation, 1 part by weight of active ingredient is dissolved with the specified parts by weight of solvent and made up to the desired concentration with water.
50 μl of the active ingredient formulation are transferred into microtitre plates and made up to a final volume of 200 μl with 150 μl of IPL41 insect medium (33%+15% sugar). Subsequently, the plates are sealed with parafilm, which a mixed population of green peach aphids (Myzus persicae) within a second microtitre plate is able to puncture and imbibe the solution.
as §1

[4] = 500 g/ha, Chinese cabbage leaf discs, after 5 days
[5] = HPLC RP C18, acidic range pH 2.7, 0.1% formic acid/acetonitrile
[6] = HPLC RP C18, neutral range pH 7.8, ammonium hydrogencarbonate/acetonitrile
[7] = reversed-phase (C18) HPLC column, HPLC RP C18, acidic range pH 2.7, 0.1% formic acid/acetonitrile, read-out: logP[a]
[8] = reversed-phase (C18) HPLC column, HPLC RP C18, neutral range pH 7.8, ammonium hydrogencarbonate/acetonitrile, read-out: logP[n]

Row | logP[a] [2, 5] | logP[n] [2, 6] | Structure (SMILES) | efficacy (aphids killed) (Myzus persicae [1]; [4]) [%] | efficacy (aphids killed) (Myzus persicae [3]; 4 ppm, oral, after 5 days) [%] | also measured
1 | 1.09 | 1.46 | CN(C(=O)c1cnc(C2=NOC(c3ccccn3)C2)n1C)c1cccnc1 (stereo not drawn) [Example I-1-42] | – | – | –
2 | 0.45 | 1.34 | CN(C(=O)c1cnc(C2=NOC(c3ccncc3)C2)n1C)c1cccnc1 (stereo not drawn) [Example I-1-44] | – | – | –
3 | 2.09 | 2.21 | CN(C(=O)c1cnc(C2=NOC(C3CCCC3)C2)n1C)c1cccnc1 (stereo not drawn) [Example I-1-38] | – | – | –
4 | 0.77 | 0.97 | CN(C)C(=O)C1=NOC(c2ncc(C(=O)N(C)c3cccnc3)n2C)C1 (stereo not drawn) [Example I-1-6] | 100 | 100 | –
5 | – | 0.74 | CN1CCN=C1c1ncc(C(=O)N(C)c2cccnc2)n1C [Example I-1-46] | – | – | –
6 | 0.78 | 1.12 | CN(C)C(=O)C1CC(c2ncc(C(=O)N(C)c3cccnc3)n2C)=NO1 (stereo not drawn) [Example I-1-39] | – | – | –
7 | 1.65 | 1.85 | CC(C)C1CC(c2ncc(C(=O)N(C)c3cccnc3)n2C)=NO1 (stereo not drawn) [Example I-1-37] | – | – | –

Further lines, the compound ahead of its results:

Row | Structure (SMILES) | logP[a] [2, 5] | logP[n] [2, 6] | efficacy (aphids killed) (Myzus persicae [1]; [4]) [%] | efficacy (aphids killed) (Myzus persicae [3]; 4 ppm, oral, after 5 days) [%] | also measured
8 | CN(C(=O)c1cnc(C2CC(c3ccccc3Cl)=NO2)n1C)c1cccnc1 (stereo not drawn) [Example I-1-9] | 1.69 | 1.95 | 100 | 100 | –
9 | CN(C(=O)c1cnc(C2CC(c3c(Cl)cc(C(F)(F)F)cc3Cl)=NO2)n1C)c1cccnc1 (stereo not drawn) [Example I-1-34] | 2.66 | 2.75 | 90 | 100 | –
10 | CN(C(=O)c1cnc(C2CC(c3cccc(Cl)c3Cl)=NO2)n1C)c1cccnc1 (stereo not drawn) [Example I-1-12] | 2.07 | 2.25 | 100 | 100 | –
11 | CCOC(=O)C1=NOC(c2ncc(C(=O)N(C)c3cccnc3)n2C)C1 (stereo not drawn) [Example I-1-5, Ethyl 5-{1-methyl-5-[methyl(pyridin-3-yl)carbamoyl]-1H-imidazol-2-yl}-4,5-dihydro-1,2-oxazole-3-carboxylate] | – | – | – | – | pest or weed control at 500 g/ha (Myzus persicae [1]; [4]): 100%; chromatographic logP [2, 7]: 1.04; chromatographic logP [2, 8]: 1.32; pest or weed control at 4 ppm (Myzus persicae [3]; 4 ppm, oral, after 5 days): 100%
12 | COc1ccc(C2=NOC(c3ncc(C(=O)N(C)c4cccnc4)n3C)C2)cc1 (stereo not drawn) [Example I-1-25] | 1.46 | 1.74 | – | 100 | –
13 | CN(C(=O)c1cnc(C2CC(c3cccc(Cl)c3)=NO2)n1C)c1cccnc1 (stereo not drawn) [Example I-1-10] | 1.88 | 2.10 | 100 | 100 | –
14 | CN(C(=O)c1cnc(C2CC(c3ccccc3C#N)=NO2)n1C)c1cccnc1 (stereo not drawn) [Example I-1-18] | 1.34 | 1.55 | 90 | 100 | –
15 | CN(C(=O)c1cnc(C2CC(c3ccc(C(F)(C(F)(F)F)C(F)(F)F)cc3)=NO2)n1C)c1cccnc1 (stereo not drawn) [Example I-1-35] | 3.01 | 3.08 | 100 | 90 | –
16 | CN(C(=O)c1cnc(C2CC(c3ccc(Cl)c(Cl)c3)=NO2)n1C)c1cccnc1 (stereo not drawn) [Example I-1-16] | 2.27 | 2.48 | 100 | 100 | –
17 | CN(C(=O)c1cnc(I)n1C)c1cccnc1 [VI-1-1, 2-Iodo-N,1-dimethyl-N-(pyridin-3-yl)-1H-imidazole-5-carboxamide] | – | – | – | – | chromatographic logP [2, 7]: 0.66; chromatographic logP [2, 8]: 0.97
18 | CN(C(=O)c1cnc(C2CC(c3ccc(C#N)cc3)=NO2)n1C)c1cccnc1 (stereo not drawn) [Example I-1-20] | 1.42 | 1.62 | 90 | 100 | –
19 | CN(C(=O)c1cnc(C=O)n1C)c1cccnc1 [XIII-1-1, 2-Formyl-N,1-dimethyl-N-(pyridin-3-yl)-1H-imidazole-5-carboxamide] | – | – | – | – | chromatographic logP [2, 7]: 0.43; chromatographic logP [2, 8]: 0.6
20 | CN(C(=O)c1cnc(C2CC(c3cc(Cl)cc(Cl)c3)=NO2)n1C)c1cccnc1 (stereo not drawn) [Example I-1-17] | 2.39 | 2.61 | 100 | 100 | –
21 | CN(C(=O)c1cnc(C2CC(c3ccc(OC(F)(F)F)cc3)=NO2)n1C)c1cccnc1 (stereo not drawn) [Example I-1-33] | 2.28 | 2.42 | 90 | – | –
22 | CN(C(=O)c1cnc(C2=CC(=O)OC2)n1C)c1cccnc1 [Example I-1-47, N,1-Dimethyl-2-(5-oxo-2,5-dihydrofuran-3-yl)-N-(pyridin-3-yl)-1H-imidazole-5-carboxamide] | – | – | – | – | pest or weed control at 500 g/ha (Myzus persicae [1]; in Brassica rapa): 90%; chromatographic logP [2, 7]: 0.46; chromatographic logP [2, 8]: 0.72; pest or weed control at 4 ppm (Myzus persicae [3]; po): 100%
23 | CN(C(=O)c1cnc(C2CC(c3ccc(Cl)cc3)=NO2)n1C)c1cccnc1 (stereo not drawn) [Example I-1-11] | 1.97 | 2.12 | 100 | 100 | –
24 | CN(C(=O)c1cnc(C2=NOC(c3ccc(C(F)(F)F)cc3)C2)n1C)c1cccnc1 (stereo not drawn) [Example I-1-41] | 2.49 | 2.60 | – | – | –
25 | CN(C(=O)c1cnc(C2CC(c3cc(Cl)ccc3Cl)=NO2)n1C)c1cccnc1 (stereo not drawn) [Example I-1-14] | 2.13 | 2.32 | 90 | 100 | –
26 | CN(C(=O)c1cnc(C=NO)n1C)c1cccnc1 [XVIII-1-1, 2-[(Hydroxyimino)methyl]-N,1-dimethyl-N-(pyridin-3-yl)-1H-imidazole-5-carboxamide] | – | – | – | – | chromatographic logP [2, 8]: 0.51
27 | CN(C(=O)c1cnc(C2CC(c3c(Cl)cccc3Cl)=NO2)n1C)c1cccnc1 (stereo not drawn) [Example I-1-15] | 1.87 | 2.10 | 100 | 100 | –
28 | CN(C(=O)c1cnc(C2=NOC(c3cccnc3)C2)n1C)c1cccnc1 (stereo not drawn) [Example I-1-43] | 0.56 | 1.35 | – | – | –
29 | C=Cc1ncc(C(=O)N(C)c2cccnc2)n1C [VII-1-1, N,1-Dimethyl-N-(pyridin-3-yl)-2-vinyl-1H-imidazole-5-carboxamide] | – | – | – | – | chromatographic logP [2, 8]: 0.82
30 | CN(C(=O)c1cnc(C2CC(c3cccnc3)=NO2)n1C)c1cccnc1 (stereo not drawn) [Example I-1-27] | 0.64 | 1.09 | 90 | 100 | –
31 | CN(C(=O)c1cnc(C2=NCCN2)n1C)c1cccnc1 [Example I-1-45, N,1-Dimethyl-N-(pyridin-3-yl)-4′,5′-dihydro-1H,1′H-2,2′-biimidazole-5-carboxamide] | – | – | – | – | chromatographic logP [2, 8]: 0.54
32 | CN(C(=O)c1cnc(C2=NOC(c3ccccc3)C2)n1C)c1cccnc1 (stereo not drawn) [Example I-1-40, N,1-Dimethyl-2-(5-phenyl-4,5-dihydro-1,2-oxazol-3-yl)-N-(pyridin-3-yl)-1H-imidazole-5-carboxamide] | – | – | – | – | pest or weed control at 500 g/ha (Myzus persicae [1]; [4]): 90%; chromatographic logP [2, 7]: 1.86; chromatographic logP [2, 8]: 1.97; pest or weed control at 4 ppm (Myzus persicae [3]; 4 ppm, oral, after 5 days): 90%
33 | CN(C(=O)c1cnc(C#N)n1C)c1cccnc1 [XXIII-1-1, 2-Cyano-N,1-dimethyl-N-(pyridin-3-yl)-1H-imidazole-5-carboxamide] | – | – | – | – | chromatographic logP [2, 7]: 0.63; chromatographic logP [2, 8]: 0.85
34 | N#Cc1cccc(C=NO)c1 [IX-19, 3-(Hydroxyimino)methylbenzonitrile] | – | – | – | – | chromatographic logP ([2]; HPLC RP C18, acidic range pH 2.7, 0.1% formic acid/acetonitrile, read-out: logP[a]): 1.2
